A short description of data set [1]: Mouse PK analysis (blood/plasma concentration after oral administration). The format is in vivo. The conditions noted are these: mouse; mice, oral, plasma. In outline: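 Mice were dosed by oral gavage at 90 mg/kg with blood sampled at 1, 2 and 6 h; a second study used oral dosing with plasma taken at 6 or 24 h. Plasma levels were measured by LC/MS/MS (acetonitrile precipitation, internal-standard curve, positive ESI MRM), and Cmax, Tmax and AUClast were derived by noncompartmental analysis.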

Data set [2] concerns the target T1, ITK (Homo sapiens, UniProt Q08881).
T1 sequence (Q08881 1-620): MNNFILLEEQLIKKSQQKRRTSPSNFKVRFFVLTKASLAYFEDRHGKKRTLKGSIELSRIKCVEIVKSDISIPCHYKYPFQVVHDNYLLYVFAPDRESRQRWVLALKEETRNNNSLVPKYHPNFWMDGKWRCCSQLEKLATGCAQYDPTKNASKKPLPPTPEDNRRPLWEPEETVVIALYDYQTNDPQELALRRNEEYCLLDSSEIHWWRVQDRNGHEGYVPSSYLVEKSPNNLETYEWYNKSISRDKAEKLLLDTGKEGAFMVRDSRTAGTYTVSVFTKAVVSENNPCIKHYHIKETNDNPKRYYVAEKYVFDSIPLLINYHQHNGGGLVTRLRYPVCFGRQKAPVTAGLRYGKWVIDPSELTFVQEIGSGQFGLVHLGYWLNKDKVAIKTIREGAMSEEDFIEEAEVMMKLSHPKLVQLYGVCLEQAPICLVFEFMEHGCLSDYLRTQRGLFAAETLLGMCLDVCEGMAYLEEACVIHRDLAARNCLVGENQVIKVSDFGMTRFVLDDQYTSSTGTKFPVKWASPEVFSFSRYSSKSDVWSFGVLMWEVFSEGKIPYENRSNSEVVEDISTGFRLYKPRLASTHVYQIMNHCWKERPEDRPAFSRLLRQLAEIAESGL
Description: ITK degradation HiBiT assay. The format is cell-based. Also on record: expressed in transfected cells; host or cells: Molt4 (ATCC CRL-1552), monoclonal clone 1C10, engineered to carry the HiBiT tag. Conditions: 4 hrs; for DC50: C-terminal HiBiT-tagged Molt4 cells; for Dmax: MOLT-4, C-terminal HiBiT-tagged Molt4 cells. In outline:
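C-terminal HiBiT-tagged Molt4 cells (clone 1C10) treated 4 h at 32° C with an 11-point, 5-fold compound dilution series (0.5% DMSO). HiBiT lytic detection with LgBiT then luminescence read; % ITK remaining versus concentration fit by four-parameter variable-slope model to give DC50 and Dmax.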
In general terms: HiBiT is a short tag that completes a luciferase, so light tracks the accessible tagged protein.

Take `C[C@@H](C(=O)N(C)c1ccc2cc(-c3n[nH]c4c3C[C@@H]3C(F)(F)[C@]3(C)C4)[nH]c2c1)N1CCN(CC2CCN(c3ccc(C(=O)NC4CCC(=O)NC4=O)nc3)CC2)CC1` (stereo partly drawn) [Compound 66, 5-(4-((4-((S)-1-((2-((4aS,5aR)-5,5-difluoro-5a-methyl-1,4,4a,5,5a,6-hexahydrocyclopropa[f]indazol-3-yl)-1H-indol-6-yl)(methyl)amino)-1-oxopropan-2-yl)piperazin-1-yl)methyl)piperidin-1-yl)-N-(2,6-dioxopiperidin-3-yl)picolinamide]: in data set [1], the area under the curve AUC(0-t) – broadly, exposure summed from dosing to a finite time, without extrapolation to infinity – is 1.74 µM·h; the Cmax (commonly the highest concentration seen after dosing) came to 526 nM; the Tmax (in general, the time from dosing to the highest level) came out at 4 h. Besides, in data set [2], the DC50 – broadly, the midpoint of the concentration-degradation curve – was 0.55 nM and the greatest degradation seen (Dmax) (as a rule, the greatest extent of degradation seen) was 71%.
For `C[C@@H](C(=O)N(C)c1ccc2cc(-c3n[nH]c4c3CCC(C)(C)C4)[nH]c2c1)N1CCN(C[C@H]2CCN(c3ccc4c(c3)n(C)c(=O)n4C3CCC(=O)NC3=O)C2)CC1` (stereo partly drawn) [Compound 5, (2S)—N-(2-(6,6-dimethyl-4,5,6,7-tetrahydro-1H-indazol-3-yl)-1H-indol-6-yl)-2-(4-(((3R)-1-(1-(2,6-dioxopiperidin-3-yl)-3-methyl-2-oxo-2,3-dihydro-1H-benzo[d]imidazol-5-yl)pyrrolidin-3-yl)methyl)piperazin-1-yl)-N-methylpropanamide] the same measures were 0.7 µM·h, 188 nM, 4 h, 1.3 nM and 74%.
With `CN(C(=O)CCC1CCN(c2ccc(C(=O)NC3CCC(=O)NC3=O)nc2)C1)c1ccc2cc(-c3n[nH]c4c3C[C@@H]3C(F)(F)[C@]3(C)C4)[nH]c2c1` (stereo partly drawn) [Compound 69, 5-(3-(3-((2-((4aS,5aR)-5,5-difluoro-5a-methyl-1,4,4a,5,5a,6-hexahydrocyclopropa[f]indazol-3-yl)-1H-indol-6-yl)(methyl)amino)-3-oxopropyl)pyrrolidin-1-yl)-N-(2,6-dioxopiperidin-3-yl)picolinamide], in data set [1], the exposure AUC(0-t) turned out to be 1.26 µM·h, the maximum concentration (Cmax) was found to be 283 nM and the time to peak (Tmax) came out at 3.5 h. Also, the maximal degradation (Dmax) in data set [2] is 42%.
In the case of `Cn1c(=O)n(C2CCC(=O)NC2=O)c2cccc(N3CCC(CN4CCC5(CC4)CCN(c4ccc6cc(-c7n[nH]c8c7CCC(C)(C)C8)[nH]c6c4)C5=O)CC3)c21` (stereo not drawn) [Compound 13, 3-(4-(4-((2-(2-(6,6-dimethyl-4,5,6,7-tetrahydro-1H-indazol-3-yl)-1H-indol-6-yl)-1-oxo-2,8-diazaspiro[4.5]decan-8-yl)methyl)piperidin-1-yl)-3-methyl-2-oxo-2,3-dihydro-1H-benzo[d]imidazol-1-yl)piperidine-2,6-dione], in data set [1], the area under the curve AUC(0-t) stood at 0.927 µM·h, the highest concentration (Cmax) was determined as 251 nM and the Tmax worked out at 4 h. In data set [2], this compound had a 50% degradation concentration (DC50) of 2.4 nM and a maximal degradation (Dmax) of 90%.
As to `C[C@@H](C(=O)N(C)c1ccc2cc(-c3n[nH]c4c3CCC(C)(C)C4)[nH]c2c1)N1CCN(C[C@H]2CCN(c3ccc4c(c3)CN(C3CCC(=O)NC3=O)C4=O)C2)CC1` (stereo partly drawn) [Compound 12, (2S)—N-(2-(6,6-dimethyl-4,5,6,7-tetrahydro-1H-indazol-3-yl)-1H-indol-6-yl)-2-(4-(((3R)-1-(2-(2,6-dioxopiperidin-3-yl)-1-oxoisoindolin-5-yl)pyrrolidin-3-yl)methyl)piperazin-1-yl)-N-methylpropanamide], in data set [1], the area under the curve AUC(0-t) came to 0.198 µM·h, the concentration peaked (Cmax) at 80.3 nM and the Tmax turned out to be 1 h. For the same compound, in data set [2], it took 0.29 nM to reach half-maximal degradation (DC50) and the Dmax is 86%.

Source of the values: patent US20240279202A1 (NURIX THERAPEUTICS, INC., priority 2021, published 2024).
